According to patent publication US4708872A, “Antitumor antibiotic complex” (Bristol-Meyers Company, priority 1985, dated 1987):
“And” between values parts separate entries of the source, which are not always exact repeats. Equal values may be shown once. Read-outs that look alike come from different tables or passages of the source.

What was measured:
L-1210 leukemia [1] = test: Intravenously implanted L-1210 leukemia, iv treatment; conditions: days 1,4,7 iv
L-1210 leukemia [2] = conditions: days 1,4,7 iv; dose of preceding T/C line
B16 melanoma = conditions: qd 1-9 ip; dose of preceding T/C line
Description: (§1) Lymphocytic leukemia P-388, lymphoid leukemia L-1210, melanotic melanoma B16 and Lewis lung carcinoma were implanted intraperitoneally into male BDF1 mice at an inoculum size of 10^6, 10^5, 5×10^5 and 10^6 cells per mouse, respectively. Graded doses of test compounds were administered to the mice intraperitoneally 24 hours after the tumor inoculation.
(§2) Death or survival of the treated and non-treated mice was recorded daily, and the median survival time (MST) was calculated for each of the test (T) and control (C) groups. […] Second experiments were carried out by intravenous administration of BBM-1675 components against P-388 and L-1210 leukemias, which were inoculated intravenously at 5×10^5 and 10^4 cells per mouse, respectively.

Description for Lewis lung carcinoma: as §1, §2

Row | Compound | MST (L-1210 leukemia [1]; 16 mg/kg/day) | Survivors on day 5 (L-1210 leukemia [1]; 16 mg/kg/day) | Survivors on day 45 (L-1210 leukemia [1]; 16 mg/kg/day) | MST (L-1210 leukemia [1]; dose of preceding T/C line) | Survivors on day 5 (L-1210 leukemia [1]; dose of preceding T/C line) | MST (L-1210 leukemia [2]) | Survivors on day 5 (Lewis lung carcinoma; mouse, in vivo, ip) | Survivors on day 5 (Lewis lung carcinoma; qd 1-11 ip, dose of preceding T/C line) | Survivors on day 5 (B16 melanoma)
1 | COc1cccc2c1C(=O)c1c(O)c3c(c(O)c1C2=O)C[C@@](O)(C(=O)CO)C[C@@H]3O[C@H]1C[C@H](N)[C@H](O)[C@H](C)O1 [Adriamycin, adriamycin] | tox. | 2/6 | 0/6 | 12.0 days and 8.0 days | 6/6 | 9.0 days |  |  | 
2 | CO[C@@H]1[C@H](O)C[C@@H](O[C@@H]2C[C@H](Oc3cc4cc5c(c(O)c4c(O)c3C)C(=O)[C@@H](O[C@H]3C[C@@H](O[C@H]4C[C@@H](O[C@H]6C[C@](C)(O)[C@@H](OC(C)=O)[C@H](C)O6)[C@H](O)[C@@H](C)O4)[C@H](O)[C@@H](C)O3)[C@H]([C@H](OC)C(=O)[C@@H](O)[C@@H](C)O)C5)O[C@H](C)[C@@H]2OC(C)=O)O[C@@H]1C [Chromomycin A3, chromomycin A3] |  |  |  |  |  |  | 5/5 | 6/6 | 6/6
